The values that follow come from patent US10857105B2, “Compounds and compositions for intracellular delivery of therapeutic agents” (ModernaTX, Inc., priority 2017, dated 2020).

The nature of series [1]: Chemical stability of lipids in ethanol at room temperature and 37° C. (lipid purity). It is filed as physicochemical. Here is the method: Ester linkages were previously reported to trigger metabolism by esterases in vivo. (See Fukami, T. et al. Drug Metab. Pharmacokinet. 2012, 27, 466-477, the content of which is incorporated by reference herein in its entirety). […] (See Maier M. A., Mol. Ther. 2013, 21, 1570-1578, the content of which is incorporated herein in its entirety) First, the chemical stability of the lipids was evaluated by measuring ethanol stability at room temperature and 37° C. (Table 39). […] LNPs formed with compound 138 were larger, with a surface pKa>7. […] Removal of one ester function (compound 136) afforded LNPs with improved physiochemical characteristics and lower LNP surface pKa.

Series [2] concerns CD-1 mice. Nature of the series: Luciferase expression after intravenous delivery of luciferase mRNA LNPs (bioluminescent imaging). In kind it is in vivo. The settings on record: intravenous 0.5 mg/kg mRNA dose. The protocol:
Whole body and ex vivo organ bioluminescent imaging of mice: CD-1 mice were injected 15 minutes prior to the imaging timepoint intraperitoneally (IP) with 200 μL Xenolight D-luciferin K+ salt, diluted in PBS just prior to use to a concentration of 15 mg/mL. Ex vivo imaging of organs was completed, within 25 minutes of luciferin administration. All images were quantified by region of interest for total flux.
[…] […] (See Semple, S.C. et al., Nature Biotech. 2010. 28, 172-176, Jayaraman, M., et al. Angew. Chem. Int. Ed. 2012, 51, 8529-8533, the entire contents of each of which are incorporated by reference herein in their entireties). To evaluate the efficiency of the new amino lipids, LNPs using the novel compounds were tested in vivo in mice using luciferase mRNA as a reporter. An MC3 LNP was included as a control in each experiment, enabling the comparison of LNPs from experiment to experiment. Measured luciferase activity also enabled the determination of protein bio-distribution.

Series [3] has as its system modified luciferase. As to the kind of experiment: Luciferase expression in liver, lung, spleen and femur 6 hours after intravenous administration to mice. Particulars: 6 hours after intravenous 0.5 mpk, mice. In kind it is in vivo. The essentials: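 Mice (n=3) got a single 0.5 mpk IV dose of each nanoparticle composition, with MC3 and PBS controls alongside. Organ luminescence flux was read 6 h post-dose.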

The subject of series [4] is hEPO mRNA. Nature of the series: hEPO expression and cytokine induction after intravenous administration to mice. In kind it is in vivo. Particulars: mice. Here is the method: FIG. 17 is a graph showing the hEPO mRNA expression in CD1-mice measured 3 h (left block), 6 h (middle block) and 24 h (right block) after intravenous administration of various nanoparticle compositions. Numbers 1-13 refer to compositions containing an mRNA expressing hEPO and the following: 1: Compound 147, 2: Compound 184, 3: Compound 232; 4: Compound 189; 5: Compound 200; 6: Compound 233; 7: Compound 234; 8: Compound 235; 9: Compound 237; 10: Compound 239; 11: Compound 243; 12: MC3; 13: PBS. […]
Sample formulations of nanoparticle compositions including different lipids are generally first evaluated according to Luc expression in vivo. The activity of several such compositions was further evaluated using an mRNA encoding hEPO. Nanoparticle compositions including Compounds 6, 18, 25, 30, 108-112, 60, and 122, or MC3 were prepared according to Example 2.
(§1) The expression of hEPO and cytokine induction in mice intravenously administered a nanoparticle composition at a dose of 0.5 mpk were measured at 3, 6, and 24 hours. […] The expression of hEPO in mice intramuscularly administered a nanoparticle composition from Table 1B at a dose of 0.01 mpk were measured at 3, 6, and 24 hours. […] (see
Table 12 compares the nanoparticle compositions including compounds according to Formula (I), (IA), (IB), (II), (IIa), (IIb), (IIc), (IId), (IIe), (IIf), (IIg), or (III) to the compositions including MC3 on the basis of expression and flux levels. […] Thus, these lipids may be useful in nanoparticle composition therapeutics.

Series [5] has as its system IL-6, IP-10. Nature of the series: Cytokine induction (IL-6, IP-10) in mice 6 hours after intravenous administration. It is filed as in vivo. Set-up: unit not given here. The settings on record: intravenous 0.5 mpk. The essentials:
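IL-6 and IP-10 concentrations determined 6 hours after a single intravenous 0.5 mpk dose of lipid nanoparticle formulation in mice, with MC3 and PBS as comparators.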

A short description of series [6]: Particle size and polydispersity index of nanoparticle compositions (Zetasizer Nano ZS). It is filed as physicochemical. The essentials:
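Formulations of ionizable lipid, DSPC, cholesterol and PEG-DMG (50:10:38.5:1.5 mol %) carrying Luc or hEPO mRNA with all uridines as N1-methyl pseudouridine. Dynamic light scattering in 1×PBS gave particle size and polydispersity; zeta potential read in 15 mM PBS.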

The subject of series [7] is modified luciferase (Luc) mRNA and H10 mRNA. As to the kind of experiment: Expression after intramuscular administration of formulations including Luc mRNA and H10 mRNA. In kind it is in vivo. The protocol:
Sample formulations including both modified luciferase (Luc) mRNA and H10 mRNA were prepared and administered intramuscularly and the resulting expression and immunogenicity were evaluated simultaneously. Formulations including compounds according to Formula (I), (IA), (IB), (II), (IIa), (IIb), (IIc), (IId), (IIe), (IIf), (IIg), or (III) were prepared and administered at doses of 0.001 and 0.01 mpk (e.g., doses of 0.0005 mpk of a formulation including Luc mRNA and a formulation including H10 mRNA or doses of 0.005 mpk of a formulation including Luc mRNA and a formulation including H10 mRNA).
The fluxes measured upon intravenous and intramuscular administration are compared in Table 6. Fluxes are presented as fold increase over that measured for MC3 formulations.

The nature of series [8]: Encapsulation efficiency of RNA in nanoparticle compositions (RIBOGREEN assay). In kind it is physicochemical. The essentials:
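Lipid nanoparticles (ionisable lipid:DSPC:cholesterol:PEG-DMG 50:10:38.5:1.5 mol %) carrying N1-methylpseudouridine luciferase or hEPO mRNA diluted to about 5 μg/mL in TE, pH 7.5, with or without 2% Triton X-100, 15 min at 37° C. RiboGreen fluorescence (ex ~480, em ~520 nm) blank-subtracted; free RNA = intact/disrupted signal.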

The test system of series [9] is luciferase (Luc) mRNA. Nature of the series: Luciferase expression (whole body bioluminescence) after intravenous administration to mice. The settings on record: intravenous, luciferase; for Novel lipid/MC3 ratio, i.v.: Table 3G, 6 hr. timepoint, relative to MC3; for Novel lipid/MC3 expression ratio, i.v.: 6 hr. time point, relative to MC3 formulation. In kind it is in vivo. The essentials: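 Luc mRNA nanoparticles were given IV at 0.5 mg/kg to groups of six mice, and whole-body bioluminescent flux was imaged 3, 6 and 24 h post-dose. Flux AUC for each lipid formulation was reported as a ratio to the MC3 reference formulation.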

The subject of series [10] is hEPO mRNA. As to the kind of experiment: hEPO expression after intramuscular administration to mice. Particulars: intramuscular, hEPO. It is filed as in vivo. The protocol:
The numbers 1-11 in this figure correspond to MC3, Compounds 18, 25, 30, 108-112, 60, and 122 respectively.
as §1

For series [11], the system named is luciferase (Luc) mRNA. As to the kind of experiment: Luciferase expression after intramuscular administration to mice. The settings on record: intramuscular. It is filed as in vivo. From the text: The numbers 1-7 in this figure correspond to MC3, Compounds 168-170, and 173-175 respectively.
FIGS. 18A and 18B show the results of luciferase expression measured upon intramuscular administration of various nanoparticle compositions to CD-1 mice at 0.01 mpk. FIG. 18A is a bar graph showing total flux at 6 hr after administration. The numbers above each bar indicate the expression ratio relative to MC3. […] Numbers 1-11 in the Figures refer to compositions containing the following: 1: MC3, 2: Compound 143, 3: Compound 49; 4: Compound 113; 5: Compound 61; 6: Compound 72; 7: Compound 75; 8: Compound 71; 9: Compound 128; 10: Compound 156; 11: Compound 157.
The numbers 1-9 in this figure correspond to MC3, and Compounds 178, 181, 182, 218, 198, 200, 233, and 239, respectively.
The total flux (measured by area under the curve, AUC) induced by administration of a formulation including a given lipid relative to that induced by administration of a formulation including MC3 was also measured for several lipids.
Sample formulations including modified luciferase (Luc) mRNA prepared and administered intramuscularly and the resulting expression and immunogenicity were evaluated simultaneously. Formulations including compounds according to Formula (I), (IA), (IB), (II), (IIa), (IIb), (IIc), (IId), (IIe), (IIf), (IIg), or (III) were prepared and administered at dose of and 0.01 mpk.

The mark [12] stands for this setting: Table 1A, lipid:DSPC:cholesterol:PEG-DMG 50:10:38.5:1.5 mol %.
Setting [13] is: Table 1C, compositions for subcutaneous administration.
Where [14] appears, read: Table 1B, formulated with hEPO mRNA.

`CCCCC/C=C\C/C=C\CCCCCCCCN(CCO)CCCCCCCC(=O)OC(CCCCCCCC)CCCCCCCC` [Compound 6, Heptadecan-9-yl 8-((2-hydroxyethyl)((9Z,12Z)-octadeca-9,12-dien-1-yl)amino)octanoate]: the “Lipid Purity, t = 96 h, 25° C.” value in series [1] (96 h, 25° C.) is listed as 93.21%. Further, the “Lipid Purity, t = 96 h, 37° C.” value in series [1] (96 h, 37° C.) is listed as 94.29%. Further, the “Lipid Purity, t = 0” value in [1] (t = 0) was 93.80%. The “luciferase activity/expression compared to MC3 LNP control (words)” value in series [2] was “Equivalent expression to MC3 LNPs”. For the same compound, in [3], the “Total Flux, Femur” value is reported as 2.15E+06; the “Total Flux, Liver” value is 1.09E+09; the “Total Flux, Lung” value is given as 4.30E+06; the “Total Flux, Spleen” value is reported as 3.03E+07. For the same compound, the “hEPO expression, 3 h” value in series [4] (intravenous 0.5 mpk, 3 h) was 2.31e+06 pg/mL. Further, in series [4] (intravenous 0.5 mpk, 6 h), the “Cytokine expression, IL-6 (6 h)” value is 10.15 pg/mL; the “Cytokine expression, IP-10 (6 h)” value was 116.66 pg/mL; the “hEPO expression, 6 h” value came out at 3.17e+06 pg/mL. For the same compound, the “hEPO expression, 24 h” value in series [4] (intravenous 0.5 mpk, 24 h) is 1.11e+06 pg/mL. The “hEPO concentrations compared with MC3 formulations” value in series [4] (intravenous, 0.5 mpk, 3, 6 and 24 hours) was “higher hEPO concentrations than MC3 formulations at each time point”. Moreover, in series [5], the “Cytokine induction, IL-6” value is listed as 136.18 and the “Cytokine induction, IP-10” value was found to be 316.01.
The compound `CCCCCCCCCOC(=O)CCCCCCCN(CCCCO)CCCCCCCC(=O)OC(CCCCCCCC)CCCCCCCC` [Compound 20, Heptadecan-9-yl 8-((4-hydroxybutyl)(8-(nonyloxy)-8-oxooctyl)amino) octanoate] had a Size in [6] (setting [12]) of 86.7 nm. In addition, in series [6] (setting [13]), the Size was found to be 86.7 nm. Besides, in series [3], the “Total Flux, Femur” value is 1.31E+07; the “Total Flux, Liver” value is 1.84E+09; the “Total Flux, Lung” value was found to be 2.66E+07; the “Total Flux, Spleen” value amounted to 1.43E+08. Besides, the “Expression upon intramuscular administration” value in [7] (doses of 0.001 and 0.01 mpk, 6 hours) is “highest expression at both dose levels”. For the same compound, the “Fold increase in Luc expression over MC3 upon intramuscular administration” value in series [7] (intramuscular) was “highest fold increase”. In [5], the “Cytokine induction, IL-6” value was found to be 126.83 and the “Cytokine induction, IP-10” value is 2468.24. This compound also returned an EE in series [8] (setting [12]) of 96.72%. Further, in series [9], the “Novel lipid/MC3 ratio, i.v.” value was 0.80 and the “Novel lipid/MC3 expression ratio, i.v.” value amounted to 0.80.
On to `CCCCCCCCCOC(=O)CCCCCCCN(CCCCCCCC(=O)OC(CCCCCCCC)CCCCCCCC)CCCNC(=O)N(C)C` [Compound 110, Heptadecan-9-yl 8-((3-(3,3-dimethylureido)propyl)(8-(nonyloxy)-8-oxooctyl)amino)octanoate], for which the “Novel lipid/MC3 ratio, i.m. hEPO” value in series [10] (Table 3G, 6 hr. timepoint, relative to MC3) came to 1.2. This compound came in with a Size in series [6] (setting [12]) of 91.5 nm. In series [6] (setting [14]), the Size was 73.3 nm. In series [6] (setting [13]), this compound displayed a Size of 91.5 nm. Also, in [11] (Luc mRNA, 0.01 mpk, 6 hours), the “Total flux 6 hours after intramuscular administration, 0.01 mpk Dose” value stood at 1.21E+08 p/s. In series [3], the “Total Flux, Liver” value stood at 2.30E+08; the “Total Flux, Lung” value is listed as 5.76E+06; the “Total Flux, Spleen” value is given as 1.41E+08. In [8] (setting [14]), this compound yielded an EE of 92.39%. Further, in [9], the “Novel lipid/MC3 ratio, i.v.” value was determined as 0.19 and the “Novel lipid/MC3 expression ratio, i.v.” value was determined as 0.19.
Take `CCCCCCCCCOC(=O)CCCCCCCN(CCCCCCCC(=O)OC(CCCCCCCC)CCCCCCCC)CCCN/C(=N/C#N)N(C)C` [Compound 168, Heptadecan-9-yl (Z)-8-((3-(2-cyano-3,3-dimethylguanidino)propyl)(8-(nonyloxy)-8-oxooctyl)amino)octanoate]: in series [10] (6 hr. time point, relative to MC3 formulation), the “Novel lipid/MC3 expression ratio, i.m. hEPO” value is listed as 6.3. The Size in series [6] (setting [12]) was found to be 102.3 nm; in series [6] (Table 1D, compositions for subcutaneous administration, # formulated with hEPO mRNA) it was 87.4 nm; in series [6] (Table 1E, compositions for subcutaneous administration), 85.0 nm. Besides, the “Novel lipid/MC3 expression ratio, i.m. Luc” value in series [11] (luciferase, 6 hr. time point, relative to MC3 formulation) turned out to be 16.0. Moreover, in [8] (setting [12]), the EE is 91.4%. In [9], the “Novel lipid/MC3 expression ratio, i.v.” value amounted to 0.11.
